Bridge positions count the residues as written; N and C are the ends. Square brackets hold non-standard residues; d marks the D form. Triazole bridges read from a SMILES are 1,4-linked. Ends that are not written are not given here. Peptide text beside a SMILES is read from it. Lys(N3) = [N-]=[N+]=NCCCC[C@H](N)C(=O)O; Pra = C#CC[C@H](N)C(=O)O
Columns and labels:
PSMA-Myc-Flag (Origene) = biological target: T1, PSMA-Myc-Flag (Origene) (Homo sapiens, UniProt Q04609); experiment: ELISA, PSMA immobilized via Myc-Flag tag, PCC titrated in solution; assay type: binding; settings: biotin-PEG10-PEG10-peptide ligands
T1 construct: purchased Origene
Description: (§1) Epitope 5 hits were tested for binding to PSMA by ELISA (PSMA immobilized; PCC titrated in solution). Two immobilization strategies were employed: a His-tag and Myc-Flag tag (His-PSMA (Sino Biological) and PSMA-Myc-Flag (Origene)).

[1] = biological target: T2, His-PSMA (Sino Biological) (Homo sapiens, UniProt Q04609); experiment: ELISA, PSMA immobilized via His-tag, PCC titrated in solution; assay type: binding; settings: biotin-PEG10-PEG10-peptide ligands
T2 construct: purchased Sino Biological
Description: as §1

PC3 (PSMA−) cells = experiment: Flow cytometry binding to PSMA- cells; assay type: cell-based
Source text: (§2) Hits resulting from the epitope 2 screen were also profiled by ELISA and flow.
(§3) Hits resulting from the epitope 3 screen were scaled up and subjected to ELISA and flow experiments.
(§4) To increase the throughput of the screening step, three epitopes were mixed and screened against the pre-cleared library. PSMA epitopes 2C, 6, and 7 were mixed and picked by either an ImmPACT Vector Red or BCIP/NBT dye (FIG. 11). The ImmPACT Vector Red screen identified the hit peptide ehtye (SEQ ID NO:22). […] Further epitope selectivity can be deconvoluted via a single epitope orientation assay.

LNCaP cells (PSMA+) = experiment: Flow cytometry binding to PSMA+ cells; assay type: cell-based
Source text: as §2, §3
(§5) Hits resulting from the epitope 4 screen were also profiled in ELISA and flow cytometry.
as §4

recombinant PSMA = recombinant PSMA (Homo sapiens, UniProt Q04609); experiment: ELISA against recombinant PSMA protein; assay type: binding
Source text: as §2, §3, §5, §4

full length PSMA protein = biological target: T3, full length PSMA protein (Homo sapiens, UniProt Q04609); experiment: Bead screen with 50 nM full length PSMA protein; assay type: binding; settings: beads that did not bind LNCaP cells
T3 construct: were incubated with 50 nM full length PSMA protein
Source text: Some beads were lost during this screen. Most beads turned purple. […] These will be evaluated further by calculating their binding affinities by docking against the screened epitopes 2C, 6, and 7. Clustering analysis was used to identify some interesting sequences. Sequences found in the periphery (pkvrd (SEQ ID NO:27), frvkd (SEQ ID NO:28), dyksk (SEQ ID NO:32), Grkpf (SEQ ID NO:35), kwndd (SEQ ID NO:36), tkGne (SEQ ID NO:39), kvetd (SEQ ID NO:41), neGfd (SEQ ID NO:42), ekfld (SEQ ID NO:43), dkkaw (SEQ ID NO:44), veyGn (SEQ ID NO:45)) are generally preferred because they are more interesting chemically.

[2] = tested on: LNCaP cells (a PSMA+ cell line); experiment: LNCaP cell adherence to hit beads; assay type: cell-based; settings: on-bead peptide
CD8 = experiment: ELISA selectivity over an unrelated protein; assay type: binding

recombinant PSMA, sequence (Q04609 whole entry): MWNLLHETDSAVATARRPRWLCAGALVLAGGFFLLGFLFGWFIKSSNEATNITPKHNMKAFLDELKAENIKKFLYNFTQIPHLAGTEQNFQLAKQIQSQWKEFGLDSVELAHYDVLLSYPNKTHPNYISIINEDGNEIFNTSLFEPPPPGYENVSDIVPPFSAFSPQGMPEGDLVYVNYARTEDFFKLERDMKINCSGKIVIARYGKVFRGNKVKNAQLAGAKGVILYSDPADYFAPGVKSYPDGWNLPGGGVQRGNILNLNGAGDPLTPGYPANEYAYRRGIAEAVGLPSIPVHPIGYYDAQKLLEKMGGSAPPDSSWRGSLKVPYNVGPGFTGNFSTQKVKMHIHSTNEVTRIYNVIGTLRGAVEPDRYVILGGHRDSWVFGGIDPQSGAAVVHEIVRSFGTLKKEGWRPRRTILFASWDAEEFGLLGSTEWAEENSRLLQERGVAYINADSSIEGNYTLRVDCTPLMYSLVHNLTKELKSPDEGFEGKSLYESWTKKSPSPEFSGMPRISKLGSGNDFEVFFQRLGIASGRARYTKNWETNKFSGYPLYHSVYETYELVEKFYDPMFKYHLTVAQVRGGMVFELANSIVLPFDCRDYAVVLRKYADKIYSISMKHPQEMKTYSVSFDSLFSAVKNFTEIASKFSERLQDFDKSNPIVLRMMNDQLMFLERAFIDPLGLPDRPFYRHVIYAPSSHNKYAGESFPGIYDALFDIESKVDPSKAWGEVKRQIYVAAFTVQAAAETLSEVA
T2 sequence (Q04609 whole entry): as above
T3 sequence (Q04609 whole entry): as above
T1 sequence (Q04609 whole entry): as above

Molecule | binding to PC3 / PSMA− cells by flow (PC3 (PSMA−) cells) | binding to LNCaP (PSMA+) cells by flow (LNCaP cells (PSMA+)) | binding to recombinant PSMA by ELISA (recombinant PSMA) | adherence of LNCaP cells to the bead [2] | further results
CC(=O)N[C@H]1Cc2cn(nn2)CCCC[C@@H](C(N)=O)NC(=O)[C@@H](Cc2c[nH]c3ccccc23)NC(=O)[C@@H](Cc2c[nH]c3ccccc23)NC(=O)[C@@H](CCC(=O)O)NC(=O)[C@@H](CCCNC(=N)N)NC(=O)[C@@H](Cc2c[nH]cn2)NC1=O [hreww] (Ac-[Pra][dH][dR][dE][dW][dW][Lys(N3)]-NH2; triazole 1-7; N-terminus and C-terminus assumed) | – | – | – | – | binding to PSMA by ELISA (PSMA-Myc-Flag (Origene)): nanomolar binding affinity; binding to PSMA by ELISA [1]: nanomolar binding affinity
CC(=O)N[C@H]1Cc2cn(nn2)CCCC[C@@H](C(N)=O)NC(=O)[C@@H](Cc2c[nH]cn2)NC(=O)[C@@H](Cc2c[nH]cn2)NC(=O)[C@@H](CCCCN)NC(=O)[C@@H](Cc2ccccc2)NC(=O)[C@@H](CC(C)C)NC1=O [lfkhh] (Ac-[Pra][dL][dF][dK][dH][dH][Lys(N3)]-NH2; triazole 1-7; N-terminus and C-terminus assumed) | bound equally | bound equally | – | – | –
dntwp: dark purple bead in full length PSMA screen ([dD][dN][dT][dW][dP]) | – | no binding | no binding | – | bead colour after incubation with PSMA protein (full length PSMA protein): darker than the others
dwpve: LNCaP-adherent bead hit1 (Table 8) ([dD][dW][dP][dV][dE]) | – | no binding | no binding | good adherence | –
ehtye: hit of ImmPACT Vector Red screen against mixed epitopes 2C, 6, 7 ([dE][dH][dT][dY][dE]) | increased binding to PSMA− cells | – | Binding to recombinant PSMA protein was achieved | – | selectivity for PSMA over an unrelated protein (CD8) (CD8): good selectivity
ert dimer: dimer of epitope 2 hit ert, PEG10-ert-Tz-ert ([dE]-[dR]-[dT]; also: dimer: PEG10-ert-Tz-ert) | showed binding | showed binding | – | – | EC50 (recombinant PSMA; read-out: EC50 of binding to recombinant PSMA by ELISA): 769 nM
ert: epitope 2A/2B hit1 (Table 3) ([dE]-[dR]-[dT]) | did not show binding | did not show binding | – | – | –
kwtsd: LNCaP-adherent bead hit2 (Table 8) ([dK][dW][dT][dS][dD]) | – | no binding | no binding | good adherence | –
svand: LNCaP-adherent bead hit3 (Table 8) ([dS][dV][dA][dN][dD]) | same binding to both PSMA+ and PSMA− cells | modest | Binding to recombinant PSMA protein was achieved | good adherence | selectivity for PSMA over an unrelated protein (CD8) (CD8): good selectivity

Source: patent publication US11638764B2, “Theranostic capture agents, compositions, and methods of using and making” (Indi Molecular, Inc., priority 2018, dated 2023)
